Results taken from ChEMBL document CHEMBL3885881, “DrugMatrix”.

Species: Rattus norvegicus
Assay: DrugMatrix - Regimen: Daily Repeat
Type: toxicity, organism-based, Sprague-Dawley
Parameters: regimen Daily Repeat, gender Male, age 6-8 weeks
Settings: in vivo, po, route oral GAVAGE, […]; for ABSOLUTE BASOPHIL / ABSOLUTE EOSINOPHIL / ABSOLUTE LYMPHOCYTE / ABSOLUTE MONOCYTE / ABSOLUTE SEGMENTED NEUTROPHIL / BASOPHIL / EOSINOPHIL / ERYTHROCYTE COUNT / HEMATOCRIT / HEMOGLOBIN / LEUKOCYTE COUNT / LYMPHOCYTE / MEAN CORPUSCULAR HEMOGLOBIN / MEAN CORPUSCULAR HEMOGLOBIN CONCENTRATION / MEAN CORPUSCULAR VOLUME / MONOCYTE / NEUTROPHIL / NUCLEATED RED BLOOD CELLS / PLATELET COUNT: tissue Blood; for ALANINE AMINOTRANSFERASE / ALBUMIN / ALKALINE PHOSPHATASE / ASPARTATE AMINOTRANSFERASE / BLOOD UREA NITROGEN / CARBON DIOXIDE / CHLORIDE / CHOLESTEROL / CREATINE PHOSPHOKINASE / CREATININE / GLUCOSE / LACTATE DEHYDROGENASE / LIPASE / PHOSPHORUS / POTASSIUM / SODIUM / TOTAL BILIRUBIN / TOTAL PROTEIN / URIC ACID: tissue Plasma
[1] = 80 mg/kg, 120 h, dose level Low, time 5 day
[2] = 338 mg/kg, 72 h, dose level High, time 3 day
[3] = 338 mg/kg, 120 h, dose level High, time 5 day

For `CC(C)(Oc1ccc(C2CCCc3ccccc32)cc1)C(=O)O` (centres undefined) [NAFENOPIN], the “ABSOLUTE BASOPHIL” value [1] was 0 CELLS/uL, the “ABSOLUTE EOSINOPHIL” value [1] was 0 CELLS/uL and the “ABSOLUTE LYMPHOCYTE” value [1] was 12561 CELLS/uL. For the same molecule, the “ABSOLUTE MONOCYTE” value [1] was 516.67 CELLS/uL, the “ABSOLUTE SEGMENTED NEUTROPHIL” value [1] was 1089 CELLS/uL and the BASOPHIL [1] was 0%. For the same molecule, the EOSINOPHIL [1] was 0%, the “ERYTHROCYTE COUNT” value [1] was 5.43 x10E6/uL and the HEMATOCRIT [1] was 32.67%. For the same molecule, the HEMOGLOBIN [1] was 12.23 G/DL, the “LEUKOCYTE COUNT” value [1] was 14.17 x10E3/uL and the LYMPHOCYTE [1] was 88.67%. The “MEAN CORPUSCULAR HEMOGLOBIN” value [1] was 22.57 pg, the “MEAN CORPUSCULAR HEMOGLOBIN CONCENTRATION” value [1] was 37.5 G/DL and the “MEAN CORPUSCULAR VOLUME” value [1] was 60.17 fL. For the same molecule, the MONOCYTE [1] was 3.67%, the NEUTROPHIL [1] was 7.67% and the “NUCLEATED RED BLOOD CELLS” value [1] was 0 /100WBC. The “PLATELET COUNT” value [1] was 828.67 x10E3/uL, the “ALANINE AMINOTRANSFERASE” value [1] was 61.67 u/L and the ALBUMIN [1] was 5.07 G/DL. For the same molecule, the “ALKALINE PHOSPHATASE” value [1] was 578 u/L, the “ASPARTATE AMINOTRANSFERASE” value [1] was 85.33 u/L and the “BLOOD UREA NITROGEN” value [1] was 14.33 mg/dL. The “CARBON DIOXIDE” value [1] was 32 mmol/L, the CHLORIDE [1] was 97 MEQ/L and the CHOLESTEROL [1] was 65.33 mg/dL. For the same molecule, the “CREATINE PHOSPHOKINASE” value [1] was 403.67 u/L, the CREATININE [1] was 0.25 mg/dL and the GLUCOSE [1] was 148.67 mg/dL. For the same molecule, the “LACTATE DEHYDROGENASE” value [1] was 257.33 u/L, the LIPASE [1] was 9.67 u/L and the PHOSPHORUS [1] was 13.43 mg/dL. The POTASSIUM [1] was 6.96 MEQ/L, the SODIUM [1] was 142.07 MEQ/L and the “TOTAL BILIRUBIN” value [1] was 0.13 mg/dL. The “TOTAL PROTEIN” value [1] was 6.07 G/DL, the “URIC ACID” value [1] was 1.23 mg/dL and the “ABSOLUTE BASOPHIL” value [2] was 0 CELLS/uL. The “ABSOLUTE EOSINOPHIL” value [2] was 40.33 CELLS/uL, the “ABSOLUTE LYMPHOCYTE” value [2] was 10009.33 CELLS/uL and the “ABSOLUTE MONOCYTE” value [2] was 484 CELLS/uL. The “ABSOLUTE SEGMENTED NEUTROPHIL” value [2] was 1499.67 CELLS/uL, the BASOPHIL [2] was 0% and the EOSINOPHIL [2] was 0.33%. The “ERYTHROCYTE COUNT” value [2] was 5.41 x10E6/uL, the HEMATOCRIT [2] was 32.97% and the HEMOGLOBIN [2] was 12.87 G/DL. For the same molecule, the “LEUKOCYTE COUNT” value [2] was 12.03 x10E3/uL, the LYMPHOCYTE [2] was 83.33% and the “MEAN CORPUSCULAR HEMOGLOBIN” value [2] was 23.77 pg. For the same molecule, the “MEAN CORPUSCULAR HEMOGLOBIN CONCENTRATION” value [2] was 39.03 G/DL, the “MEAN CORPUSCULAR VOLUME” value [2] was 60.93 fL and the MONOCYTE [2] was 4%. For the same molecule, the NEUTROPHIL [2] was 12.33%, the “NUCLEATED RED BLOOD CELLS” value [2] was 0 /100WBC and the “PLATELET COUNT” value [2] was 1008 x10E3/uL. The “ALANINE AMINOTRANSFERASE” value [2] was 113 u/L, the ALBUMIN [2] was 4.73 G/DL and the “ALKALINE PHOSPHATASE” value [2] was 921 u/L. The “ASPARTATE AMINOTRANSFERASE” value [2] was 143 u/L, the “BLOOD UREA NITROGEN” value [2] was 13.67 mg/dL and the “CARBON DIOXIDE” value [2] was 22 mmol/L. For the same molecule, the CHLORIDE [2] was 104 MEQ/L, the CHOLESTEROL [2] was 59.67 mg/dL and the “CREATINE PHOSPHOKINASE” value [2] was 584.33 u/L. The CREATININE [2] was 0.7 mg/dL, the GLUCOSE [2] was 143.67 mg/dL and the “LACTATE DEHYDROGENASE” value [2] was 415.33 u/L. For the same molecule, the LIPASE [2] was 10 u/L, the PHOSPHORUS [2] was 12.27 mg/dL and the POTASSIUM [2] was 6.14 MEQ/L. The SODIUM [2] was 143.63 MEQ/L, the “TOTAL BILIRUBIN” value [2] was 0.2 mg/dL and the “TOTAL PROTEIN” value [2] was 5.63 G/DL. The “URIC ACID” value [2] was 1.23 mg/dL, the “ABSOLUTE BASOPHIL” value [3] was 0 CELLS/uL and the “ABSOLUTE EOSINOPHIL” value [3] was 38 CELLS/uL. For the same molecule, the “ABSOLUTE LYMPHOCYTE” value [3] was 11719.67 CELLS/uL, the “ABSOLUTE MONOCYTE” value [3] was 400 CELLS/uL and the “ABSOLUTE SEGMENTED NEUTROPHIL” value [3] was 1175.67 CELLS/uL. The BASOPHIL [3] was 0%, the EOSINOPHIL [3] was 0.33% and the “ERYTHROCYTE COUNT” value [3] was 5.3 x10E6/uL. The HEMATOCRIT [3] was 30.47%, the HEMOGLOBIN [3] was 11.43 G/DL and the “LEUKOCYTE COUNT” value [3] was 13.33 x10E3/uL. The LYMPHOCYTE [3] was 88%, the “MEAN CORPUSCULAR HEMOGLOBIN” value [3] was 21.6 pg and the “MEAN CORPUSCULAR HEMOGLOBIN CONCENTRATION” value [3] was 37.53 G/DL. The “MEAN CORPUSCULAR VOLUME” value [3] was 57.53 fL, the MONOCYTE [3] was 3% and the NEUTROPHIL [3] was 8.67%. The “NUCLEATED RED BLOOD CELLS” value [3] was 0 /100WBC, the “PLATELET COUNT” value [3] was 850.67 x10E3/uL and the “ALANINE AMINOTRANSFERASE” value [3] was 87 u/L. For the same molecule, the ALBUMIN [3] was 4.73 G/DL, the “ALKALINE PHOSPHATASE” value [3] was 891.33 u/L and the “ASPARTATE AMINOTRANSFERASE” value [3] was 88.67 u/L. For the same molecule, the “BLOOD UREA NITROGEN” value [3] was 12.67 mg/dL, the “CARBON DIOXIDE” value [3] was 29 mmol/L and the CHLORIDE [3] was 98 MEQ/L. For the same molecule, the CHOLESTEROL [3] was 96.67 mg/dL, the “CREATINE PHOSPHOKINASE” value [3] was 209.67 u/L and the CREATININE [3] was 0.65 mg/dL. The GLUCOSE [3] was 129.67 mg/dL, the “LACTATE DEHYDROGENASE” value [3] was 216.67 u/L and the LIPASE [3] was 10 u/L. It also gave a PHOSPHORUS [3] of 12.7 mg/dL, a POTASSIUM [3] of 6.55 MEQ/L and an SODIUM [3] of 143.43 MEQ/L. For the same molecule, the “TOTAL BILIRUBIN” value [3] was 0.23 mg/dL, the “TOTAL PROTEIN” value [3] was 5.67 G/DL and the “URIC ACID” value [3] was 1.3 mg/dL.
